Experimental data: US9427428B2, “Benzimidazole-imidazole derivatives” (Janssen Sciences Ireland UC, priority 2009, dated 2016)

Legend:
Type in all cases: cell-based
[1] = Counterscreen Huh7-CMV-Luc; conditions: human
Source text: (§1) Counterscreen cell lines included a Huh-7 hepatoma cell line containing a human cytomegalovirus major immediate-early promoter-Luc construct (Huh7-CMV-Luc) and an MT4 T-cell line containing a long terminal repeat-Luc reporter (MT4-LTR-Luc).

[2] = test system: HCV genotype 1b replicon NS5A Y93H; assay: Transient HCV 1b replicon, NS5A mutant Y93H; conditions: Hepatitis C virus, read-out: EC50 Y93H
Source text: (§2) In a transient set-up, a Huh-7 lunet hepatoma cell line was transiently transfected with an autonomously replicating RNA encoding a bi-cistronic expression construct. This construct comprises a firefly luciferase reporter gene preceding the NS3-NS5B subgenomic region of HCV (genotype 1a H77 or 1b Con1). Translation of the HCV subgenomic region is mediated by an internal ribosome entry site of encephalomyocarditis virus. The construct is furthermore flanked by 5′ and 3′ untranslated regions of HCV (genotype 1a H77 or 1b Con 1, respectively), which allow for replication of the RNA.
In addition to the wild-type constructs, site-directed mutations were introduced into the transient HCV genotype 1b replicon in the gene encoding for the non-structural protein 5A (NS5A). More precisely, amino acid residues 28, 30, 31 and 93 in NS5A were independently altered.
(§3) Cells were plated in 384 well plates in the presence of test and control compounds, which were added in various concentrations. Following an incubation of two days, replication of the HCV subgenomic replicon RNA was measured by assaying luciferase activity (using standard luciferase assay substrates and reagents and a Perkin Elmer ViewLux™ ultraHTS microplate imager). HCV subgenomic replicon containing cells in the control cultures have high luciferase expression in the absence of any inhibitor. The inhibitory activity of the compound was monitored, enabling a dose-response curve for each test compound. EC50 values were then calculated, which represent the amount of compound required to decrease the level of detected luciferase activity by 50%, or more specifically, to reduce the ability of the genetically linked HCV subgenomic RNA to replicate.

[3] = test system: HCV genotype 1b Con1 replicon (Huh-7 lunet cells); assay: HCV replicon assay, transient transfection, genotype 1b; conditions: Hepatitis C virus, 48 h, genotype 1b Con1, two days incubation, luciferase
Source text: as §2, §3
(§4) Where a compound of formula (I) was tested more than once in the transient replicon assay, the average of all test results is given in Table 3.

[4] = test system: HCV genotype 1a H77 replicon (Huh-7 lunet cells); assay: HCV replicon assay, transient transfection, genotype 1a; conditions: Hepatitis C virus, 48 h, genotype 1a H77, two days incubation, luciferase
Source text: as §2, §3, §4

[5] = Counterscreen MT4-LTR-Luc; conditions: human
Source text: as §1

[6] = test system: HCV type 1b replicon (Huh-7 luc/neo cells); assay: HCV replicon assay, stable transfection (Huh-Luc, luciferase); conditions: Hepatitis C virus, Huh-7, 72 h, three days incubation, average of all tests
Source text: The compounds of formula (I) were examined for inhibitory activity in the HCV replicon. This cellular assay is based on a bicistronic expression construct, as described by Lohmann et al. (Science (1999) 285: 110-113; Journal of Virology (2003) 77: 3007-3019) with modifications described by Krieger et al. (Journal of Virology (2001) 75: 4614-4624), and Lohmann et al. (Journal of Virology (2003) 77: 3007-3019) for genotype 1b and by Yi et al. (Journal of Virology (2004) 78: 7904-7915) for genotype 1a, in a multi-target screening strategy.
The method was as follows. The assay utilized the stably transfected cell line Huh-7 luc/neo (hereafter referred to as Huh-Luc). This cell line harbors an RNA encoding a bicistronic expression construct comprising the wild type NS3-NS5B regions of HCV type 1b translated from an Internal Ribosome Entry Site (IRES) from encephalomyocarditis virus (EMCV), preceded by a reporter portion (FfL-luciferase), and a selectable marker portion (neoR, neomycine phosphotransferase). The construct is flanked by 5′ and 3′ NTRs (non-translated regions) from HCV type 1b. Continued culture of the replicon cells in the presence of G418 (neoR) is dependent on the replication of the HCV RNA. The stably transfected replicon cells that replicate HCV RNA autonomously and to high levels, encoding inter alia luciferase, were used for screening the antiviral compounds.
The replicon cells were plated in 384 well plates in the presence of the test and control compounds which were added in various concentrations. Following an incubation of three days, HCV replication was measured by assaying luciferase activity (using standard luciferase assay substrates and reagents and a Perkin Elmer ViewLux™ ultraHTS microplate imager). Replicon cells in the control cultures have high luciferase expression in the absence of any inhibitor. The inhibitory activity of the compound was monitored on the Huh-Luc cells, enabling a dose-response curve for each test compound. EC50 values were then calculated, which represent the amount of compound required to decrease the level of detected luciferase activity by 50%, or more specifically, to reduce the ability of the genetically linked HCV replicon RNA to replicate.
Where a compound of formula (I) was tested more than once in the replicon assay, the average of all test results is given in this Table 2.

Compound: COC(=O)N[C@H](C(=O)N1CCC[C@H]1c1ncc(-c2ccc3cc(-c4ccc5nc([C@@H]6CCCN6C(=O)[C@@H](NC(=O)OC)[C@@H](C)O)[nH]c5c4)ccc3c2)[nH]1)[C@@H](C)O [Compound 6]
- CC50 [1]: > 984 nM
- EC50 [2]: 1.01 nM
- EC50 [3]: 0.142 nM
- EC50 [4]: 0.181 nM
- CC50 [5]: > 984 nM
- EC50 [6]: 0.132 nM

Compound: CC[C@@H](C)[C@H](NC(=O)OC)C(=O)N1CCC[C@H]1c1ncc(-c2ccc3cc(-c4ccc5nc([C@@H]6CCCN6C(=O)[C@@H](NC(=O)OC)[C@H](C)CC)[nH]c5c4)ccc3c2)[nH]1 [Compound 19]
- CC50 [1]: > 984 nM
- EC50 [2]: 5.19 nM
- EC50 [3]: 0.002 nM
- EC50 [4]: 0.471 nM
- CC50 [5]: > 984 nM
- EC50 [6]: 0.003 nM

Compound: COC(=O)N[C@H](C(=O)N1CCC[C@H]1c1ncc(-c2ccc3cc(-c4ccc5nc([C@@H]6CCCN6C(=O)[C@@H](NC(=O)OC)C6CCCC6)[nH]c5c4)ccc3c2)[nH]1)C1CCCC1 [Compound 15]
- CC50 [1]: > 984 nM
- EC50 [2]: 1.19 nM
- EC50 [3]: 0.003 nM
- EC50 [4]: 0.277 nM
- CC50 [5]: > 984 nM
- EC50 [6]: 0.003 nM

Compound: COC(=O)N[C@H](C(=O)N1CCC[C@H]1c1ncc(-c2ccc3cc(-c4ccc5nc([C@@H]6CCCN6C(=O)[C@@H](NC(=O)OC)C6CC6)[nH]c5c4)ccc3c2)[nH]1)C1CC1 [Compound 5]
- CC50 [1]: > 984 nM
- EC50 [2]: 10.8 nM
- EC50 [3]: 0.058 nM
- CC50 [5]: > 984 nM
- EC50 [6]: 0.039 nM

Compound: CC[C@H](C)[C@H](NC(=O)OC)C(=O)N1CCC[C@@H]1c1ncc(-c2ccc3cc(-c4ccc5[nH]c([C@@H]6CCCN6C(=O)[C@@H](NC(=O)OC)[C@@H](C)OC)nc5c4)ccc3c2)[nH]1 [Compound 21]
- CC50 [1]: 8160 nM
- EC50 [2]: 275 nM
- EC50 [3]: 2.9 nM
- EC50 [4]: 482 nM
- CC50 [5]: 9140 nM
- EC50 [6]: 2.2 nM

Compound: COC(=O)N[C@@H](CC(C)C)C(=O)N1CCC[C@H]1c1ncc(-c2ccc3cc(-c4ccc5nc([C@@H]6CCCN6C(=O)[C@H](CC(C)C)NC(=O)OC)[nH]c5c4)ccc3c2)[nH]1 [Compound 7]
- CC50 [1]: > 984 nM
- EC50 [2]: 3.41 nM
- EC50 [3]: 0.003 nM
- EC50 [4]: 0.989 nM
- CC50 [5]: > 984 nM
- EC50 [6]: 0.005 nM

Compound: CC[C@H](C)[C@H](NC(=O)OC)C(=O)N1CCC[C@H]1c1nc2cc(-c3ccc4cc(-c5cnc([C@H]6CCCN6C(=O)[C@@H](NC(=O)OC)[C@@H](C)OC)[nH]5)ccc4c3)ccc2[nH]1 [Compound 20]
- CC50 [1]: 8160 nM
- EC50 [2]: 336 nM
- EC50 [3]: 4.1 nM
- EC50 [4]: 324 nM
- CC50 [5]: 9410 nM
- EC50 [6]: 2.3 nM

Compound: COC(=O)NC(C(=O)N1CCC[C@H]1c1ncc(-c2ccc3cc(-c4ccc5nc([C@@H]6CCCN6C(=O)C(NC(=O)OC)C6CCOCC6)[nH]c5c4)ccc3c2)[nH]1)C1CCOCC1 (mixture of isomers) [Compound 12]
- CC50 [1]: > 984 nM
- EC50 [2]: 0.275 nM
- EC50 [3]: 0.11 nM
- EC50 [4]: 0.268 nM
- CC50 [5]: > 984 nM
- EC50 [6]: 0.08 nM

Compound: COCC[C@H](NC(=O)OC)C(=O)N1CCC[C@H]1c1ncc(-c2ccc3cc(-c4ccc5nc([C@@H]6CCCN6C(=O)[C@H](CCOC)NC(=O)OC)[nH]c5c4)ccc3c2)[nH]1 [Compound 10]
- CC50 [1]: > 984 nM
- EC50 [2]: 1.03 nM
- EC50 [3]: 0.057 nM
- CC50 [5]: > 984 nM
- EC50 [6]: 0.029 nM

Compound: COC(=O)NC(C(=O)N1CCC[C@H]1c1ncc(-c2ccc3cc(-c4ccc5nc([C@@H]6CCCN6C(=O)C(NC(=O)OC)c6ccccc6)[nH]c5c4)ccc3c2)[nH]1)c1ccccc1 (mixture of isomers) [Compound 14]
- CC50 [1]: > 984 nM
- EC50 [2]: 0.093 nM
- EC50 [3]: 0.004 nM
- EC50 [4]: 0.836 nM
- CC50 [5]: > 984 nM
- EC50 [6]: 0.004 nM
